Source: patent publication US9328093B2, “Selective inhibitors of ubiquitin specific protease 7, the pharmaceutical compositions thereof and their therapeutic applications” (HYBRIGENICS SA, priority 2010, dated 2016)

How the values were obtained:
USP5 = molecular target: T1, USP5 (Homo sapiens, UniProt P45974); assay: USP5 activity assay (Ub-AMC substrate); type: biochemical; settings: Ub-AMC 300 nM, USP5 300 pM
T1 sequence (P45974 1-858): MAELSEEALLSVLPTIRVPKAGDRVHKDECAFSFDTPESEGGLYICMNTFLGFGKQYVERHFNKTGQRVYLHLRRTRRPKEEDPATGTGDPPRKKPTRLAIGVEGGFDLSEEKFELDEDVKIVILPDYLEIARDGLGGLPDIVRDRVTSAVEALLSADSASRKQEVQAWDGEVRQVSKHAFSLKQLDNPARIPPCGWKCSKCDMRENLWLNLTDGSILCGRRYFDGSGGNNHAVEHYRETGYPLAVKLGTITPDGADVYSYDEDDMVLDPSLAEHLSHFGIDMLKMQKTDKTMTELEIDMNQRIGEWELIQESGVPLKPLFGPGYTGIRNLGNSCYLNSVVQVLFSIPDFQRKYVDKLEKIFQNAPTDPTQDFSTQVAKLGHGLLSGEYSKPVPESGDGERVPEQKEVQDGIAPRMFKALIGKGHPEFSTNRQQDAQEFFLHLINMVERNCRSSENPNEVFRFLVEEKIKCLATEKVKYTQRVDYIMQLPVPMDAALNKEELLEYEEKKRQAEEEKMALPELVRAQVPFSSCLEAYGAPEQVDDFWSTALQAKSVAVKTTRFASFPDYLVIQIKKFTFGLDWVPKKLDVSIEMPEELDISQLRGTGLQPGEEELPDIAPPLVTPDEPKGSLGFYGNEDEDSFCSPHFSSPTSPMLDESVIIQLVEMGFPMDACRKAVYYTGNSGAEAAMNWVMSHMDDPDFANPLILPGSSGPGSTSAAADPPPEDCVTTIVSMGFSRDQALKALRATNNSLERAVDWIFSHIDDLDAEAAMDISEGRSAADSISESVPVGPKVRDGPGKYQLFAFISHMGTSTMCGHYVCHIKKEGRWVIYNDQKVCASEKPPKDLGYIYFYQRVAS
Description: USP5 was diluted in USP buffer (50 mM Tris HCl; 0.5 mM EDTA; 5 mM DTT; 0.01% Triton X-100; Bovine Serum Albumin 0.05 mg·ml^−1 pH 7.6). Compounds stocks (100 mM) were stored at −20° C. in DMSO. Compounds were tested at different concentrations: from 200 μM to 91 nM.
Reactions were performed as duplicates in Black 384 well plates (small volume microplates; Greiner; 10 μl final reaction volume). The substrate concentration for USP5 was 300 nM Ub-AMC (Boston Biochem). The concentrations of the enzyme (USP5) in specificity assays was 300 pM. The concentrations were determined in order to perform specificity assays under initial velocities at fixed substrate concentration. Compounds were pre-incubated with enzymes for 30 minutes at 25° C. Reactions were initiated by addition of substrate to the plates containing the enzymes (+/− compounds) diluted in assay buffer. Reactions were incubated for 60 minutes at 37° C. Reactions were stopped by adding acetic acid (100 mM final). Readings were performed on a Pherastar Fluorescent Reader (BMG). λ Emission 380 nm; λ Excitation=460 nm. Data (mean values +/− standard deviation) were analyzed as % of control (no compound) and plotted as percentage versus the Log of the compound concentration using GraphPad (Prism). Data were fitted to a sigmoidal model (variable slope).

UCH-L3 = molecular target: T2, UCH-L3 (Homo sapiens, UniProt P15374); assay: UCH-L3 activity assay (Ub-AMC substrate); type: biochemical; settings: Ub-AMC 300 nM, UCH-L3 13 pM
T2 sequence (P15374 1-230): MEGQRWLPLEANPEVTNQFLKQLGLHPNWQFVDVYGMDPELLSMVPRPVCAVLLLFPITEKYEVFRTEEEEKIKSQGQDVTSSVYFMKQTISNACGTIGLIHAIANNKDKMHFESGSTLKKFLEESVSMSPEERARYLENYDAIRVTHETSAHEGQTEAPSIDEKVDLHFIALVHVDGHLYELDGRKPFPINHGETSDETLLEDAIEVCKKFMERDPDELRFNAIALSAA
Description: UCH-L3 was diluted in USP buffer (50 mM Tris HCl; 0.5 mM EDTA; 5 mM DTT; 0.01% Triton X-100; Bovine Serum Albumin 0.05 mg·ml^−1 pH7.6). Compounds stocks (100 mM) were stored at −20° C. in DMSO. Compounds were tested at different concentrations: from 200 μM to 91 nM.
Reactions were performed as duplicates in Black 384 well plates (small volume microplates; Greiner; 10 μl final reaction volume). The substrate concentration for UCH-L3 was 300 nM Ub-AMC (Boston Biochem). The concentration of the enzyme (UCH-L3) in specificity assays was 13 pM. The concentrations were determined in order to perform specificity assays under initial velocities at fixed substrate concentration. Compounds were pre-incubated with enzymes for 30 minutes at 25° C. Reactions were initiated by addition of substrate to the plates containing the enzymes (+/− compounds) diluted in assay buffer. Reactions were incubated for 60 minutes at 37° C. Reactions were stopped by adding acetic acid (100 mM final). Readings were performed on a Pherastar Fluorescent Reader (BMG). λ Emission 380 nm; λ Excitation=460 nm. Data (mean values +/− standard deviation) were analyzed as % of control (no compound) and plotted as percentage versus the Log of the compound concentration using GraphPad (Prism). Data were fitted to a sigmoidal model (variable slope).

Row | IC50 (USP5) [µM] | IC50 (UCH-L3) [µM] | SMILES
1 | > 200 | > 200 | CC1CCCCN1CCCNC(=O)c1ccc2c(Cl)c3c(nc2c1)CCCC3 (stereo not drawn) [Example 20, 9-chloro-N-(3-(2-methylpiperidin-1-yl)propyl)-516,7,8-tetrahydroacridine-3-carboxamide]
2 | > 200 | > 200 | O=C(NCc1ccc(CN2CCCC2)cc1)c1ccc2c(Cl)c3c(nc2c1)CCCC3 [Example 21, 9-chloro-N-(4-(pyrrolidin-1-ylmethyl)benzyl)-5,6,7,8-tetrahydroacridine-3-carboxamide]
3 | > 200 | > 200 | CN(C)c1ccc(CN2CCC(CNC(=O)c3ccc4c(Cl)c5c(nc4c3)CCCC5)CC2)cc1 [Example 23]
4 | > 200 | > 200 | O=C(NCC1CCNCC1)c1ccc2c(Cl)c3c(nc2c1)CCCC3 [Example 24, 9-chloro-N-((piperidin-4-yl)methyl)-5,6,7,8-tetrahydroacridine-3-carboxamide]

The next lines start with the compound.

Row | SMILES | IC50 (USP5) [µM] | IC50 (UCH-L3) [µM]
5 | CN1CCCC1CCNC(=O)c1ccc2c(Cl)c3c(nc2c1)CCCC3 (stereo not drawn) [Example 17, 9-chloro-N-(2-(1-methylpyrrolidin-2-yl)ethyl)-5,6,7,8-tetrahydroacridino-3-carboxamide] | > 200 | > 200
6 | O=C(NCc1cccc(CN2CCCC2)c1)c1ccc2c(Cl)c3c(nc2c1)CCCC3 [Example 18, 9-chloro-N-(3-(pyrrolidin-1-ylmethyl)benzyl)-5,6,7,8-tetrahydroacridine-3-carboxamide] | > 200 | > 200
7 | O=C(Nc1cccc(CN2CCCC2)c1)c1ccc2c(Cl)c3c(nc2c1)CCCC3 [Example 19, 9-chloro-N-(3-(pyrrolidin-1-ylmethyl)phenyl)-5.6,7,8-tetrahydroacridine-3-carboxamide] | > 200 | > 200
8 | COc1ccc(CN2CCC(CNC(=O)c3ccc4c(Cl)c5c(nc4c3)CCCC5)CC2)cc1 [Example 22, 9-chloro-N-((1-(4-methoxybenzyl)piperidin-4-yl)methyl)-5,6,7,8-tetrahydroacridine-3-carboxamide] | > 200 | > 200
9 | O=C(NCC(CN1CCCC1)C(O)c1ccccc1)c1ccc2c(Cl)c3c(nc2c1)CCCC3 (stereo not drawn) [Example 25, 9-chloro-N-(3-hydroxy-3-phenyl-2-pyrrolidin-1-ylmethylpropyl)-5,6,7,8-tetrahydroacridine-3-carboxamide] | > 200 | > 200
